According to PMC3712822 (Pharmacotherapy, 2011):
Where two headings read alike, the source gives them in different places.

Key:
[1] = Plasma clarithromycin partial AUC in the atorvastatin plus clarithromycin phase; assay type: in vivo; settings: human, oral, 500 mg, Partial AUC of clarithromycin (hrs 2–10), clarithromycin 500 mg twice/day, day 4, mean ± SD
[2] = system: CYP3A; settings: classification by the United States Food and Drug Administration; cited from earlier work
[3] = patients taking atorvastatin; cited from earlier work
[4] = system: human myocytes; settings: in vitro; cited from earlier work
[5] = system: CYP3A; settings: cited from earlier work
[6] = for AUC(0-inf) / half-life / Tmax / Cmax: human, plasma, oral; for AUC(0-inf): AUC0–∞; for AUC(0-inf) / Tmax / Cmax: median (IQR); for half-life: harmonic mean ± SD; for Cmax: atorvastatin + clarithromycin 500 mg twice/day
[7] = 20 mg, CYP3A5 expressors (n=10), atorvastatin only
[8] = 20 mg, CYP3A5 nonexpressors (n=13), atorvastatin only
[9] = CYP3A5 expressors (n=10), atorvastatin + clarithromycin
[10] = CYP3A5 nonexpressors (n=13), atorvastatin + clarithromycin

## CC[C@H]1OC(=O)[C@H](C)[C@@H](O[C@H]2C[C@@](C)(OC)[C@@H](O)[C@H](C)O2)[C@H](C)[C@@H](O[C@@H]2O[C@H](C)C[C@H](N(C)C)[C@H]2O)[C@](C)(OC)C[C@@H](C)C(=O)[C@H](C)[C@@H](O)[C@]1(C)O [clarithromycin]
[1]; CYP3A5 expressors
  AUC: 17700 µg·h/mL
[1]; CYP3A5 nonexpressors
  AUC: 21900 µg·h/mL
[2]
  CYP3A inhibitor classification: strong CYP3A inhibitor

## CC(C)c1c(C(=O)Nc2ccccc2)c(-c2ccccc2)c(-c2ccc(F)cc2)n1CC[C@@H](O)C[C@@H](O)CC(=O)O [atorvastatin acid, atorvastatin]
[3]
  Patients experiencing muscle-related adverse effects: 3–8%

## CC(C)c1c(C(=O)Nc2ccccc2)c(-c2ccccc2)c(-c2ccc(F)cc2)n1CC[C@@H]1C[C@@H](O)CC(=O)O1 [atorvastatin lactone]
[4]
  Toxicity to human myocytes relative to the acid form: more toxic
[5]
  Affinity for CYP3A relative to atorvastatin acid: higher affinity
[6]; atorvastatin-only phase, p=0.038
  AUC0–∞ higher in nonexpressors than in expressors: 36%
[6]; [7]
  AUC(0-inf): 0.0349 µg·h/mL
  half-life: 10.9 ± 4.5 h
  Tmax: 2 h
[6]; [8]
  AUC(0-inf): 0.0476 µg·h/mL
  half-life: 13.6 ± 5.2 h
  Tmax: 1 h
[6]; [9]
  AUC(0-inf): 0.11 µg·h/mL
  half-life: 19.3 ± 5.4 h
  Tmax: 5 h
[6]; [10]
  AUC(0-inf): 0.127 µg·h/mL
  half-life: 19.2 ± 5.2 h
[6]; CYP3A5 expressors (n=10)
  Cmax: 4.2 ng/mL
[6]; CYP3A5 nonexpressors (n=13)
  Cmax: 4.2 ng/mL
